# Laboratory results reported in PubChem BioAssay (NCI).
#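 Five concentrations, 48 hours, 96-well plates. GI50 marks 50% less growth. TGI is the concentration that stops growth completely.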
# Tests used:
# Assay in all cases: DTP human tumour cell line panel, 48 h
# SW-620 colon = system: SW-620 colon
# HOP-62 NSCLC = system: HOP-62 NSCLC
# BT-549 breast = system: BT-549 breast
# OVCAR-4 ovarian = system: OVCAR-4 ovarian
# SK-MEL-5 melanoma = system: SK-MEL-5 melanoma
# M14 melanoma = system: M14 melanoma
# HCT-15 colon = system: HCT-15 colon
# OVCAR-3 ovarian = system: OVCAR-3 ovarian
# KM12 colon = system: KM12 colon
# HL-60(TB) leukemia = system: HL-60(TB) leukemia
SMILES,TGI (SW-620 colon) [µM],TGI (HOP-62 NSCLC) [µM],TGI (BT-549 breast) [µM],TGI (OVCAR-4 ovarian) [µM],TGI (SK-MEL-5 melanoma) [µM],TGI (M14 melanoma) [µM],TGI (HCT-15 colon) [µM],TGI (OVCAR-3 ovarian) [µM],TGI (KM12 colon) [µM],TGI (HL-60(TB) leukemia) [µM],GI50 (SW-620 colon) [µM],GI50 (HOP-62 NSCLC) [µM],GI50 (BT-549 breast) [µM],GI50 (OVCAR-4 ovarian) [µM],GI50 (SK-MEL-5 melanoma) [µM],GI50 (M14 melanoma) [µM],GI50 (HCT-15 colon) [µM],GI50 (OVCAR-3 ovarian) [µM],GI50 (KM12 colon) [µM],GI50 (HL-60(TB) leukemia) [µM]
Nc1nc(Nc2ccccc2)sc1C(=O)c1c[nH]c2ccccc12,31.2,30.9,29.8,23.5,25.1,20.6,14.7,26.6,24.4,46.2,–,–,–,–,–,–,–,–,–,–
COC(=O)C1(Cc2ccc3c(c2)CCC3)Cc2cc3c(cc2C1)CCC3,> 100,> 100,> 100,89.3,> 100,> 100,> 100,> 100,> 100,77.8,–,–,–,–,–,–,–,–,–,–
COc1ccc(-c2csc(NC(=O)CSc3nc(C)c(-c4ccccc4)n3Nc3ccccc3)n2)cc1,> 100,> 100,> 100,> 100,> 100,> 100,> 100,> 100,> 100,> 100,51.9,47.8,8.93,8.24,4.45,8.66,6.9,9.61,5.71,6.29
COC(=O)C1OC(O[C@H]2CC[C@]3(C)[C@H]4CC=C5[C@@H]6CC(C)(C)CC[C@]6(C(=O)OC6OCC(O)C(O)C6OC6OC(C)C(OC7OCC(OC8OCC(O)C(O)C8O)C(O)C7O)C(O)C6O)[C@H](O)C[C@@]5(C)[C@]4(C)CC[C@H]3C2(C)C)C(O)C(O)C1O (some centres not stated),11.8,13,4.4,21.6,11.6,3.56,22.7,20.9,14.2,> 26.9,–,–,–,–,–,–,–,–,–,–
Cc1c2ccncc2c(C)c2c1[nH]c1ccccc12,2.07,3.13,3.34,2.66,2.01,2.33,2.73,2.65,2.36,6.78,–,–,1.56,–,–,0.979,–,–,–,–
O/C(=C\c1nc2ccccc2nc1NC12CC3CC(CC(C3)C1)C2)c1ccc(Br)cc1,> 10,> 10,> 10,> 10,> 10,> 10,> 10,> 10,> 10,> 10,–,–,–,–,–,–,–,–,–,–
c1ccc(-c2cnc(-c3ccc(-c4ncc(-c5ccccc5)o4)cc3)o2)cc1,> 100,> 100,> 100,> 100,> 100,> 100,> 100,> 100,> 100,> 100,–,–,–,–,–,–,–,–,–,–
COc1ccc(N=Nc2c3c(c(O)c4ccccc24)CCC(C)(C)O3)cc1,> 100,52.9,34.6,50.4,24.9,39.3,28.9,33.2,29.5,50.1,–,–,–,–,–,–,–,–,–,–
Nc1nc(Nc2ccc(Cl)cc2)sc1C(=O)c1cccs1,> 100,53.6,> 100,> 100,> 100,> 100,> 100,72.1,> 100,> 100,–,–,–,–,–,–,–,–,–,–
CCOC(=O)C1CN(C2CC2)CCC1=O (configuration not stated),> 100,> 100,> 100,> 100,> 100,> 100,> 100,> 100,> 100,> 100,–,–,–,–,–,–,–,–,–,–
O=C(O)CC(NC(=O)/C(=C/c1ccccc1O)NC(=O)c1ccccc1)C(=O)O (configuration not stated),> 100,> 100,> 100,> 100,> 100,> 100,> 100,> 100,> 100,76.5,–,–,–,–,–,–,–,–,–,–
Cc1ccc(S(=O)(=O)NC(=O)NNc2ccc(F)cc2)cc1,> 100,> 100,> 31.6,> 100,> 100,> 100,> 100,> 100,> 100,> 100,–,–,–,–,–,–,–,–,–,–
Cc1cc2c(nn1)-c1ccccc1C2=O,> 10,> 10,> 10,> 10,> 10,> 10,> 10,> 10,> 10,> 10,–,–,–,–,–,–,–,–,–,–
C[C@]1(S(=O)(=O)c2ccccc2)C[C@H]2N(Cc3ccccc3)[C@@H]1CCC21OCCO1,> 100,> 100,> 100,> 100,> 100,> 100,> 100,> 100,> 100,32.6,–,–,–,–,–,–,–,–,–,–
COc1ccc2c(c1)CCN=C2c1ccccc1CCCCl,> 100,> 100,> 100,52.2,13.3,> 100,74.1,> 100,> 100,> 100,–,–,–,–,–,–,–,–,–,–
O=C1CC(Sc2nc3ccc(I)cc3c(=O)n2Cc2ccccc2)C(=O)NN1 (configuration not stated),35.2,35.1,29.3,36.8,29.7,39.8,28.8,31.2,38.8,38.4,–,–,–,–,–,–,–,–,–,–
CCc1nc2cc3cccnc3c(Cl)c2[nH]c1=O,> 100,> 100,> 100,> 100,> 100,> 100,> 100,> 100,> 100,> 100,–,–,–,–,–,–,–,–,–,–
